Where two headings read alike, the source gives them in different places. Positions of bridges follow the written chain, without caps; N, C: chain ends. Residues, ends and D or L forms follow the SMILES beside them. *: point of attachment. X2 = N=C(N)NCCC[C@H](N*)C(=O)c1nccs1
Key:
Assay type in all cases: biochemical
hepsin = biological target: T1, hepsin (Homo sapiens, UniProt P05981); assay: P4-P2 substrate specificity using HyCoSuL, hepsin; design: concentration or dose not given beside the values; details: HyCoSuL substrate library; for P2 Position % Activity Hepsin: amino acid fixed at P2 position; for P3 Position % Activity Hepsin: amino acid fixed at P3 position; for P4 Position % Activity Hepsin: amino acid fixed at P4 position
T1 construct: purchased R&D Systems 4776-SE-010
Description: (§1) Each of the P4, P3, and P2 sublibraries were screened at the 100 μM concentration with hepsin either HGFA in a 100 μL final volume per well (99 μL of protease in buffer+1 μL of 10 mM substrates mixture). The total time of the assay was 30 minutes, however only linear portions of the progress curve (5-15 minutes) were used for velocity (RFU/s) calculations. Each sublibrary screening was repeated at least 3-times and the average value calculated from each measurement was used to create the substrate specificity matrix—the best recognized amino acid in each position was set to 100%, and other amino acids were adjusted accordingly.
Recombinant human hepsin (10 μg in 20 uL, 4776-SE-010, R&D Systems) was added to the 100 μL of activation buffer (0.1 M Tris, 0.15 M NaCl, 0.01 M CaCl2, 0.05% TRITON-X, pH=8.0) and incubated at 37° C. for 24 hours (hepsin concentration in activation buffer 2 μM). Once activated hepsin was diluted in assay buffer (0.05 M Tris, pH=9.0) to the final concentration of 4 nM and incubated at 37° C. for 15 minutes before added to a substrate.

HGFA [1] = biological target: T2, HGFA (Homo sapiens, UniProt Q04756); assay: P4-P2 substrate specificity using HyCoSuL, HGFA; design: P3 Position % Activity HGFA / P2 Position % Activity HGFA: concentration or dose not given beside the values; P4 Position % Activity HGFA: tested at 100 µM; details: HyCoSuL substrate library; for P2 Position % Activity HGFA: amino acid fixed at P2 position; for P3 Position % Activity HGFA: amino acid fixed at P3 position; for P4 Position % Activity HGFA: amino acid fixed at P4 position
T2 sequence (Q04756 408-655 limits assumed): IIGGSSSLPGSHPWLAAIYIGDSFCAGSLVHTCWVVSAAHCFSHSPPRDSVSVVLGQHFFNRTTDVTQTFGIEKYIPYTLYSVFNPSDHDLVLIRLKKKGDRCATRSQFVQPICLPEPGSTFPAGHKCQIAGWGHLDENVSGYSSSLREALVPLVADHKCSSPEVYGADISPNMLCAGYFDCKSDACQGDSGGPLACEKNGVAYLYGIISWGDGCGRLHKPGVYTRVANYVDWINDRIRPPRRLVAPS
T2 sequence (Q04756 373-407 partner limits assumed): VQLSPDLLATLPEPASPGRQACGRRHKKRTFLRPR
Description: as §1
HFGA enzyme was diluted in the assay buffer (0.15 M NaCl, 0.025 M Tris, 0.005 M CaCl2, pH=8.0) to the final concentration of 10-20 nM (depending of sublibrary) and incubated at 25° C. for 30 minutes before added to a substrate.

HGFA [2] = biological target: T3, HGFA (Homo sapiens, UniProt Q04756); assay: Fluorescent kinetic enzyme inhibitor assay of HGFA; details: read-out: HGFA Ki
T3 construct: His6 tag (N); seven amino acid spacer and seven amino acid TEV cleavage site (N); Honey Bee melittin signal peptide (N); made in house; host or cells: High 5 insect cells (baculovirus; virus raised in Sf9)
T3 sequence (Q04756 373-655): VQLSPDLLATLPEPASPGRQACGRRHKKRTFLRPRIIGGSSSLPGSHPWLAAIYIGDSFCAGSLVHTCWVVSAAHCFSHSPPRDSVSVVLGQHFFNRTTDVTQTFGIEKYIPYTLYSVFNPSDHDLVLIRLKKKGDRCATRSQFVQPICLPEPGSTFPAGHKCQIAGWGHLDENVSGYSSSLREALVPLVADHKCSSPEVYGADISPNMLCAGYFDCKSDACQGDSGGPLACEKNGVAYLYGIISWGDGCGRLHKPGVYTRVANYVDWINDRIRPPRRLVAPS
Excerpt: Using primers identified as SEQ ID NO 1, SEQ ID NO 2, and standard PCR protocols, the nucleotide sequence encoding amino acids 373-655 of HGFA was synthesized. This PCR product was cloned into the SfoI-HindIII sites of a modified pFastBac HT baculovirus expression vector (Addgene, Cambridge, Mass.). This vector contains a six amino His tag followed by a seven amino spacer and a seven amino acid TEV cleavage site placed immediately downstream of the Honey Bee melittin signal peptide. Using a modified Bac to Bac Expression System (Life Technologies, Carlsbad, Calif.), recombinant HGFA bacmids were obtained by transforming DH10Bac Escherichia coli cells. To obtain HGFA containing baculovirus, purified bacmids were transfected into Sf9 insect cells. After 5 days in culture at 27° C., media was harvested from transfected Sf9 cells. This media was used to prepare baculovirus infected insect cells (BIICs). These BIIICs were used to infect High 5 insect cells. Four days post infection, media was harvested and recombinant protein prepared as follows. Media was chilled to 4° C. and spun at 4000×g for 20 minutes (all subsequent steps were performed at 4° C. unless noted). Clarified media was passed first through a Whatman GF/B 1 um (#1821-047, GE Healthcare Life Sciences, Piscataway, N.J.) and then a 0.22 um PES membrane (#99955, TPP Techno Plastic Products AG, Trasadingen, Switzerland) and then concentrated using a Pall Centramate tangential flow system and Centramate T-series Cassette (#OS010T12, Pall Corporation, Port Washington, N.Y.). Concentrated media was then buffer exchanged in two steps, five volumes of 50 mM Na-phosphate, 500 mM NaCl, pH 6.2, followed by five volumes of 50 mM Na-phosphate, 500 mM NaCl, pH 7.5. The concentrated and buffered exchanged insect cell media was again filtered as above and made 25 mM imidazole (#1202, Sigma-Aldrich, St. Louis, Mo.) and was mixed with nickel agarose beads (#H-321-25, Gold Biotechnology, Inc., St. Louis Mo.). After mixing this slurry for 12 hours, nickel agarose beads were allowed to settle by gravity and then loaded into a column. Beads were washed with buffer (25 mM Na-phosphate, 500 mM NaCl, 25 mM imidazole, pH 8) and the bound protein eluted using (25 mM Na-phosphate, 500 mM NaCl, 250 mM imidazole, pH 8). Using a Amicon Ultra-4 Centrifugal filters (#UFC801008, Merck Millipore, Ltd., Tullagreen, Ireland), peak protein fractions were concentrated and run over a Superdex-200 10/300 GL column (GE Healthcare Life Sciences, Piscataway, N.J.) in 10 mM Tris, 200 mM NaCl, 0.2 mM EDTA, pH 8. HGFA containing fractions were pooled, concentrated, made 50% glycerol, and stored at minus 20° C. Protein was quantitated using a modified Lowry protein assay (#500-0006, Bio-Rad Laboratories, Hercules, Calif.).
Inhibitors (11-pt serial dilutions, 0-20 μM final concentration in reaction) were serially diluted in DMSO (2% DMSO final concentration) and then mixed with either recombinant serine protease domain of HGFA [Z. Han, P. K. Harris, D. E. Jones, R. Chugani, T. Kim, M. Agarwal, W. Shen, S. A. Wildman, J. W. Janetka, Acs Med Chem Lett 2014, 5, 1219-1224], matriptase (Charles Craik, UCSF) or hepsin* (#4776-SE-010, R&D Systems, Minneapolis, Minn.) in black 384 well plates (Corning #3575. Corning, N.Y.). […] The final substrate concentrations for all assays were at the Km for the respective enzymes. Changes in fluorescence (excitation at 380 nm and emission at 460 nm) were measured at room temperature over time in a Biotek Synergy 2 plate reader (Winnoski, Vt.). Using GraphPad Prism version 6.04 software program, (GraphPad Software, San Diego, Calif., www.graphpad.com), a four parameter curve fit was used to determine the inhibitor IC50s from a plot of the mean reaction velocity versus the inhibitor concentration. The IC50 values represent the average of three separate experimental determinations.

T1 sequence (P05981 163-417 limits assumed): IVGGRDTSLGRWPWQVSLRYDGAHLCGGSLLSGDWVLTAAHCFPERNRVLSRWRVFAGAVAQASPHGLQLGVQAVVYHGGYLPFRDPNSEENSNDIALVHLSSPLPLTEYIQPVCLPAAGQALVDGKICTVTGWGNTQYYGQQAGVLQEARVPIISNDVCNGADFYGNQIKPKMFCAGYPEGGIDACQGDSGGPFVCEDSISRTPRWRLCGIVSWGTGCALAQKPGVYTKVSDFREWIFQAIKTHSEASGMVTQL
T1 sequence (P05981 45-162 partner limits assumed): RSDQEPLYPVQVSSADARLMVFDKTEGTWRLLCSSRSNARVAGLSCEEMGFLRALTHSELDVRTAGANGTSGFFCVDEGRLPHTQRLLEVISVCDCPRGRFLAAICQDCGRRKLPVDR

| Ki (HGFA [2]; Table 6.1, Fluorogenic Assay) [µM] | Molecule | other results |
| --- | --- | --- |
| – | D-Arg | P2 Position % Activity Hepsin (hepsin): 0.00%; P3 Position % Activity Hepsin (hepsin): 66.08%; P4 Position % Activity Hepsin (hepsin): 44.37%; P2 Position % Activity HGFA (HGFA [1]): 0.00%; P3 Position % Activity HGFA (HGFA [1]): 29.10%; P4 Position % Activity HGFA (HGFA [1]): 23.20% |
| > 20 | N=C(N)NCCC[C@H](NC(=O)[C@@H]1CCCN1C(=O)OCC1c2ccccc2-c2ccccc21)C(=O)c1nc2ccccc2s1 [Compound 7187-15, Fmoc-PR-kbt] | – |
| > 20 | N=C(N)NCCC[C@H](NC(=O)[C@H](CO)NC(=O)OCC1c2ccccc2-c2ccccc21)C(=O)c1nc2ccccc2s1 [Compound 7187-16, Fmoc-SR-kbt] | – |
| > 20 | N=C(N)NCCC[C@H](NC(=O)[C@H](CCCCN)NC(=O)OCC1c2ccccc2-c2ccccc21)C(=O)c1nc2ccccc2s1 [Compound 7185-12, Fmoc-KR-kbt] | – |
| > 20 | N=C(N)NCCC[C@H](NC(=O)[C@H](CC(N)=O)NC(=O)OCC1c2ccccc2-c2ccccc21)C(=O)c1nc2ccccc2s1 [Compound 7185-3, Fmoc-NR-kbt] | – |
| – | L-Pip | P2 Position % Activity Hepsin (hepsin): 10.66%; P3 Position % Activity Hepsin (hepsin): 1.64%; P4 Position % Activity Hepsin (hepsin): 34.68%; P2 Position % Activity HGFA (HGFA [1]): 1.75%; P3 Position % Activity HGFA (HGFA [1]): 0.83%; P4 Position % Activity HGFA (HGFA [1]): 9.25% |
| > 20 | N=C(N)NCCC[C@H](NC(=O)[C@H](CC(=O)O)NC(=O)OCC1c2ccccc2-c2ccccc21)C(=O)c1nc2ccccc2s1 [Compound 7185-4, Fmoc-DR-kbt] | – |
| 1.38 | CC(C)C[C@H](NC(=O)[C@@H](N)Cc1c[nH]c2ccccc12)C(=O)N[C@@H](CCCNC(=N)N)C(=O)c1nc2ccc(C(=O)O)cc2s1 [Compound 1-56A1, H-WLR-kbt-COOH] | – |
| 0.0341 | CC(C)C[C@H](NC(=O)[C@H](CCCNC(=N)N)NC(=O)[C@H](CCCCN)NC(=O)CCCCC[N+]1=C(/C=C/C=C/C=C2/N(C)c3ccc4ccccc4c3C2(C)C)C(C)(C)c2c1ccc1ccccc21)C(=O)N[C@@H](CCCNC(=N)N)C(=O)CCl [Compound 1179, Cy5.5-KRLR(SEQ ID NO: 8)-cmk] | – |
| 6.47 | CC[C@H](C)[C@H](NC(=O)OCC1c2ccccc2-c2ccccc21)C(=O)N[C@@H](CCCNC(=N)N)C(=O)c1nc2ccccc2s1 [Compound 7185-10, Fmoc-IR-kbt] | – |
| 2.25 | N=C(N)NCCC[C@H](NC(=O)[C@H](Cc1ccccc1)NC(=O)[C@H](N)Cc1c[nH]c2ccccc12)C(=O)c1nc2ccccc2s1 [Compound 1-18A1, H-dWFR-kbt] | – |
| 5.68 | N=C(N)NCCC[C@H](NC(=O)[C@H](Cc1ccccc1)NC(=O)[C@@H](N)Cc1c[nH]c2ccccc12)C(=O)c1nc2ccccc2s1 [Compound 1-13A1, H-WFR-kbt] | – |
| 0.128 | CC(C)C[C@H](NC(=O)[C@H](N)Cc1c[nH]c2ccccc12)C(=O)N[C@@H](CCCNC(=N)N)C(=O)c1nc2ccccc2s1 [Compound 1-15A1, H-dWLR-kbt] | – |
| – | N=C(N)NCCC[C@H](NC(=O)[C@@H]1CC(=O)NCCCC[C@H](N)C(=O)N[C@@H](CCC(N)=O)C(=O)N1)C(=O)N[C@@H](CCCNC(=N)N)C(=O)c1nccs1 [Compound 7074, (2S,5S,13S)-13-amino-2-(3-amino-3-oxopropyl)-N—((S)-5-guanidino-1-(((S)-5-guanidino-1-oxo-1-(thiazol-2-yl)pentan-2-yl)amino)-1-oxopentan-2-yl)-3,7,14-trioxo-1,4,8-triazacyclotetradecane-5-carboxamide] (H-KQDR-X2; lactam 1-3) | Ki (HGFA [2]; Table 7.1, first HGFA column): 5.94 µM; Ki (HGFA [2]; Table 7.1, second column headed HGFA): 0.00155 µM |
| 0.346 | CC(C)C[C@H](NC(=O)[C@H](N)Cc1c[nH]c2ccccc12)C(=O)N[C@@H](CCCNC(=N)N)C(=O)c1nc2ccc(C(=O)O)cc2s1 [Compound 1-57A1, H-dWLR-kbt-COOH] | – |
| 6.36 | N=C(N)NCCC[C@H](NC(=O)[C@H](Cc1cnc[nH]1)NC(=O)OCC1c2ccccc2-c2ccccc21)C(=O)c1nc2ccccc2s1 [Compound 7185-9, Fmoc-HR-kbt] | – |
| > 20 | N=C(N)NCCC[C@H](NC(=O)[C@H](CCC(=O)O)NC(=O)OCC1c2ccccc2-c2ccccc21)C(=O)c1nc2ccccc2s1 [Compound 7185-7, Fmoc-ER-kbt] | – |
| > 20 | C[C@@H](O)[C@H](NC(=O)OCC1c2ccccc2-c2ccccc21)C(=O)N[C@@H](CCCNC(=N)N)C(=O)c1nc2ccccc2s1 [Compound 7188-17, Fmoc-TR-kbt] | – |
| 3.71 | CC(C)C[C@H](NC(=O)[C@H](Cc1c[nH]c2ccccc12)NC(=O)[C@@H](N)Cc1cncn1COCc1ccccc1)C(=O)N[C@@H](CCCNC(=N)N)C(=O)c1nc2ccccc2s1 [Compound 1-54A1, H-His(Bom)WLR-kbt] | – |

| Molecule | Ki (HGFA [2]; Table 6.1, Fluorogenic Assay) [µM] | other results |
| --- | --- | --- |
| CC(C)C[C@H](NC(=O)[C@H](CCCNC(=N)N)NC(=O)[C@H](CCCCN)NC(=O)CCCCC[N+]1=C(/C=C/C=C/C=C2/N(C)c3ccc4ccccc4c3C2(C)C)C(C)(C)c2c1ccc1ccccc21)C(=O)N[C@@H](CCCNC(=N)N)C(=O)c1nc2ccccc2s1 [Compound 1178-2, Cy5.5-KRLR(SEQ ID NO: 8)-kbt] | 0.608 | – |

Source: patent US11130780B2, “Inhibitors of growth factor activation enzymes” (Washington University, priority 2015, dated 2021)
